# Results from US10968217B2, “Tetrahydropyridopyrimidines for the treatment and prophylaxis of hepatitis B virus infection” (Hoffmann-La Roche Inc., priority 2016, dated 2021).
# Test system: HBsAg
# Experiment: HBsAg assay (CLIA of secreted HBsAg in HepG2.2.15 culture supernatant)
# Assay type: cell-based, HBV
# Details: Hepatitis B virus, HepG2.2.15, read-out: IC50 (HBsAg assay)
# Experimental: HepG2.2.15 cells (Acs et al. Proc Natl Acad Sci USA, 84, (1987), 4641-4), a constitutively HBV-expressing cell line were cultured in DMEM+Glutamax-I medium (Invitrogen, Carlsbad, Calif., USA), supplemented with 10% fetal bovine serum (Invitrogen) and G418 (Invitrogen) at a final concentration of 200 mg/L and maintained in 5% CO2 at 37° C.
# HepG2.2.15 cells were seeded in duplicate into white, 96-well plates at 1.5×10^4 cells/well. The cells were treated with a three-fold serial dilution series of the compounds in DMSO. The final DMSO concentration in all wells was 1% and DMSO was used as no drug control.
# The HBsAg chemiluminescence immunoassay (CLIA) kit (Autobio Diagnostics Co., Zhengzhou, China, Catalog number: CL0310-2) was used to measure the levels of secreted HBV antigens semi-quantitatively. For the detection 50 μL/well culture supernatant was used and HBsAg was quantified using HBsAg chemiluminescence immunoassay (CLIA) kit (Autobio Diagnostics Co., Zhengzhou, China, Catalog number: CL0310-2), 50 μL of the supernatant was transferred to the CLIA assay plate and 50 μL of enzyme conjugate reagent was added into each well. The plates were sealed and gently agitated for 1 hour at room temperature. The supernatant-enzyme-mixture was discarded and wells were washed 6 times with 300 μL of PBS. The residual liquid was removed by plating the CLIA plate right side down on absorbent tissue paper. 25 μL of substrates A and B were added to each well. Luminance was measured using a luminometer (Mithras LB 940 Multimode Microplate Reader) after 10 minutes incubation. Dose-response curves were generated and the IC50 value was extrapolated by using the E-WorkBook Suite (ID Business Solutions Ltd., Guildford, UK). The IC50 was defined as the compound concentration at which HBsAg secretion was reduced by 50% compared to the no drug control.
row,Structure (SMILES),IC50 [µM]
1,"COc1cc(Cl)cc(C(=O)N2CCc3nc(-c4ccccn4)ncc3C2)c1 [Example 18, (3-Chloro-5-methoxy-phenyl)-[2-(2-pyridyl)-7,8-dihydro-5H-pyrido[4,3-d]pyrimidin-6-yl]methanone]",10
2,"O=C(c1ccc(O)c(F)c1)N1CCc2nc(-c3ccccn3)ncc2C1 [Example 12, (3-Fluoro-4-hydroxy-phenyl)-[2-(2-pyridyl)-7,8-dihydro-5H-pyrido[4,3-d]pyrimidin-6-yl]methanone]",21.4
3,"CC1c2cnc(-c3ccccn3)nc2CCN1C(=O)c1ccc(Br)s1 (stereo not drawn) [Example 53, (5-Bromo-2-thienyl)-[5-methyl-2-(2-pyridyl)-7,8-dihydro-5H-pyrido[4,3-d]pyrimidin-6-yl]methanone]",0.51
4,"O=C(c1ccc(F)cc1)N1CCc2nc(-c3ccccn3)ncc2C1 [Example 8, (4-Fluorophenyl)-[2-(2-pyridyl)-7,8-dihydro-5H-pyrido[4,3-d]pyrimidin-6-yl]methanone]",16.4
5,"O=C(c1ccc(Cl)cc1)N1CCc2nc(-c3ccccn3)ncc2C1 [Example 5, (4-Chlorophenyl)-[2-(2-pyridyl)-7,8-dihydro-5H-pyrido[4,3-d]pyrimidin-6-yl]methanone]",11.4
6,"CC1c2cnc(-c3ncccn3)nc2CCN1C(=O)c1nn(C)c2ccccc12 (stereo not drawn) [Example 62, (1-Methylindazol-3-yl)-(5-methyl-2-pyrimidin-2-yl-7,8-dihydro-5H-pyrido[4,3-d]pyrimidin-6-yl)methanone]",0.42
7,"Cc1ccsc1C(=O)N1CCc2nc(-c3ccccn3)ncc2C1C (stereo not drawn) [Example 50, [5-Methyl-2-(2-pyridyl)-7,8-dihydro-5H-pyrido[4,3-d]pyrimidin-6-yl]-(3-methyl-2-thienyl)methanone]",27.7
8,"COCCCOc1ccc(C(=O)N2CCc3nc(-c4ccccn4)ncc3C2)cc1Cl [Example 24, [3-Chloro-4-(3-methoxypropoxy)phenyl]-[2-(2-pyridyl)-7,8-dihydro-5H-pyrido[4,3-d]pyrimidin-6-yl]methanone]",3.18
9,"O=C(c1cc(F)cc(F)c1)N1CCc2nc(-c3ccccn3)ncc2C1 [Example 37, (3,5-Difluorophenyl)-[2-(2-pyridyl)-7,8-dihydro-5H-pyrido[4,3-d]pyrimidin-6-yl]methanone]",25.8
10,"CC1c2cnc(-c3ccccn3)nc2CCN1C(=O)c1ccc2cc[nH]c2c1 (stereo not drawn) [Example 46, 1H-ndol-6-yl-[5-methyl-2-(2-pyridyl)-7,8-dihydro-5H-pyrido[4,3-d]pyrimidin-6-yl]methanone]",2.08
11,"COc1ccc2[nH]nc(C(=O)N3CCc4nc(-c5ncccn5)ncc4C3C)c2c1 (stereo not drawn) [Example 66, (5-Methoxy-1H-indazol-3-yl)-(5-methyl-2-pyrimidin-2-yl-7,8-dihydro-5H-pyrido[4,3-d]pyrimidin-6-yl)methanone]",1.36
12,"COc1ccc(C(=O)N2CCc3nc(-c4ccccn4)ncc3C2)cn1 [Example 36, (6-Methoxy-3-pyridyl)-[2-(2-pyridyl)-7,8-dihydro-5H-pyrido[4,3-d]pyrimidin-6-yl]methanone]",3.97
13,"Cc1ncoc1C(=O)N1CCc2nc(-c3ccccn3)ncc2C1C (stereo not drawn) [Example 45, (4-Methyloxazol-5-yl)-[5-methyl-2-(2-pyridyl)-7,8-dihydro-5H-pyrido[4,3-d]pyrimidin-6-yl]methanone]",1.43
14,"COc1ccc(C(=O)N2CCc3nc(-c4ccccn4)ncc3C2C)cc1OC (single isomer, unassigned; (-)) [Example 34, (−)-(3,4-Dimethoxyphenyl)-[5-methyl-2-(2-pyridyl)-7,8-dihydro-5H-pyrido[4,3-d]pyrimidin-6-yl]methanone]",1.81
15,"O=C(c1ccc(C(F)(F)F)cc1)N1CCc2nc(-c3ccccn3)ncc2C1 [Example 1, [2-(2-Pyridyl)-7,8-dihydro-5H-pyrido[4,3-d]pyrimidin-6-yl]-[4-(trifluoromethyl)phenyl]methanone]",15.7
